Assay results from patent publication US20110224079A1, “SPIROHETEROCYCLIC N-OXYAMIDES AS PESTICIDES” (SYNGENTA CROP PROTECTION LLC, priority 2008, published 2011).

Legend:
[1] = system: Thrips tabaci (onion thrips); test: Example B3: activity against Thrips tabaci, sprayed sunflower leaf discs (feeding/residual contact, preventive); type: in vivo; conditions: foliar, 144 h, mixed population, 6 days
Source text: Activity Against Thrips tabaci (Onion Thrips)
(Mixed Population, Feeding/Residual Contact Activity, Preventive)

[2] = system: Myzus persicae (green peach aphid); test: Example B2: activity against Myzus persicae, pea seedling roots in test solution (systemic/feeding, curative); conditions: 144 h, read-out: activity (mortality)
[3] = system: Myzus persicae (green peach aphid); test: Example B1: activity against Myzus persicae, sprayed sunflower leaf discs (feeding/residual contact, preventive); conditions: foliar, 144 h, read-out: activity (mortality)
[4] = system: Aphis Craccivora (cowpea aphid); test: Example B10: activity against Aphis craccivora, pea seedling roots in test solution (systemic/feeding); type: in vivo; conditions: 144 h, roots of infested pea seedlings in test solution, 6 days
Source text: Activity Against Aphis Craccivora (Cowpea Aphid)
(Mixed Population, Systemic/Feeding)

[5] = system: Aphis Craccivora (cowpea aphid); test: Example B11: translaminar activity against Aphis craccivora on French bean leaves; type: in vivo; conditions: 120 h, upper leaf side painted, aphids on lower side, 5 days
Experimental: Translaminar Activity Against Aphis Craccivora (Cowpea Aphid)
French bean leaves (Phaseolus vulgaris) are infested with about 20 mixed age individuals on the lower leaf side using clip cages. 1 day after the infestation, the upper side of the leaves is treated with the test solution by painting. 5 days later, samples are checked for mortality.

[6] = system: Myzus persicae (green peach aphid); test: Example B13: drench activity against Myzus persicae, pea seedlings in field soil; conditions: 168 h, read-out: drench activity (mortality)
[7] = system: Nilaparvata lugens (brown rice planthopper); test: Example B8: activity against Nilaparvata lugens, sprayed rice seedlings (larvicide, feeding/contact); conditions: in Oryza sativa, read-out: activity (mortality, growth regulation, effects on F1 generation)
[8] = system: Tetranychus urticae (two-spotted spider mite); test: Example B4: activity against Tetranychus urticae, sprayed bean leaf discs (feeding/residual contact, preventive); conditions: foliar, 192 h, read-out: activity (egg, larval and adult mortality)
[9] = system: Bemisia tabaci (tobacco white fly); test: Example B7: activity against Bemisia tabaci, sprayed bean plants (larvicide, contact/feeding); type: in vivo; conditions: 504 h, bean plants with N-2 nymphs sprayed, three weeks, read-out: activity (efficacy, number of emerged adults)
Experimental: Activity Against Bemisia tabaci (Tobacco White Fly)
(Larvicide, Contact/Feeding)
Bean plants are infested with 20-30 adults that were removed after a 4 day egg-laying period. After another 7 days, bean plants with hatched nymphs (N-2) are treated (2 replicates) with the test solutions in a spray chamber. Three weeks later, samples are checked for number of emerged adults. Efficacy was calculated by comparing number of emerged adults in treated and non treated samples.

[10] = system: Myzus persicae (green peach aphid); test: Example B17: activity against Myzus persicae on sprayed pepper plants (feeding/residual contact); type: in vivo; conditions: 144 h, infested pepper plants sprayed, 6 days
[11] = system: Frankliniella occidentalis (western flower thrips); test: Example B6: activity against Frankliniella occidentalis, bean leaf discs or bean plants; type: in vivo; conditions: foliar, 6 days (leaf discs) or 14 days (plants) after infestation, read-out: activity (reduction of treated population)
Experimental: Activity Against Frankliniella occidentalis (Western Flower Thrips)
Bean leaf discs on agar in petri dishes or bean plants in a spray chamber are treated with diluted test solutions. After drying leaf discs are cut and placed in plastic cups on the surface of an agar layer and infested with mixed population. 6 days (leaf discs) or 14 days (plants) after the infestation, samples are checked for reduction of treated population and compared to the non treated population.

Row | Compound | mortality at 400 ppm [1] [%] | mortality at 400 ppm [2] [%] | mortality at 400 ppm [3] [%] | mortality at 400 ppm [4] [%] | mortality at 400 ppm [5] [%] | mortality at 25 ppm [6] [%] | mortality at 400 ppm [7] [%] | mortality at 400 ppm [8] [%] | pest or weed control at 200 ppm [9] [%] | mortality at 200 ppm [10] [%] | pest or weed control at 400 ppm [11] [%]
1 | CON1CCC2(CC1)C(O)=C(c1ccc(C)cc1C)C(=O)N2OC [P2.51] | > 80 | > 80 | > 80 | – | – | – | – | – | – | – | –
2 | COCCON1C(=O)C(c2c(C)cc(C)cc2Br)=C(O)C12CCN(OC)CC2 [P2.57] | – | > 80 | > 80 | > 80 | > 80 | > 80 | > 80 | > 80 | – | – | –
3 | CCOC(=O)OC1=C(c2c(C)cc(C)cc2C)C(=O)N(OCC2CCOC2)C12CCN(OC)CC2 (centres unmarked) [P1.78] | – | > 80 | – | > 80 | > 80 | > 80 | > 80 | > 80 | > 80 | ≥ 80 | –
4 | CON1CCC2(CC1)C(O)=C(c1c(C)cc(C)cc1C)C(=O)N2OCc1ccoc1 [P2.64] | – | > 80 | > 80 | > 80 | > 80 | > 80 | > 80 | > 80 | > 80 | ≥ 80 | –
5 | CCOCON1C(=O)C(c2c(C)cc(C)cc2C)=C(O)C12CCN(OC)CC2 [P2.10] | > 80 | > 80 | > 80 | > 80 | > 80 | – | > 80 | – | – | ≥ 80 | > 80
6 | CCOC(=O)OC1=C(c2c(C)ccc(C)c2Cl)C(=O)N(OCOC)C12CCN(OC)CC2 [P1.59] | – | > 80 | > 80 | > 80 | > 80 | > 80 | > 80 | > 80 | – | – | –
7 | C=CCON1C(=O)C(c2c(C)cc(C)cc2C)=C(O)C12CCN(OC)CC2 [P2.12] | – | > 80 | > 80 | – | > 80 | > 80 | – | > 80 | > 80 | ≥ 80 | > 80
8 | CCOC(=O)OC1=C(c2c(C)cc(Br)cc2C)C(=O)N(OCOC)C12CCN(OC)CC2 [P1.62] | > 80 | – | – | – | – | – | – | – | – | – | –
9 | CON1CCC2(CC1)C(O)=C(c1c(C)cc(C)cc1Cl)C(=O)N2OC [P2.55] | – | > 80 | > 80 | > 80 | > 80 | > 80 | > 80 | > 80 | – | – | > 80
10 | CCOC(=O)OC1=C(c2c(C)cc(C)cc2C)C(=O)N(OCc2ccco2)C12CCN(OC)CC2 [P1.81] | > 80 | > 80 | > 80 | – | – | – | – | > 80 | – | ≥ 80 | –
11 | CON1CCC2(CC1)C(O)=C(c1c(C)cc(C)cc1C)C(=O)N2OC(C)C [P2.11] | – | > 80 | – | – | – | > 80 | – | > 80 | – | ≥ 80 | > 80
12 | CCOC(=O)OC1=C(c2c(C)cc(C)cc2C)C(=O)N(OC2CCCCO2)C12CCN(OC)CC2 (centres unmarked) [P1.10] | – | > 80 | > 80 | > 80 | > 80 | > 80 | > 80 | > 80 | > 80 | ≥ 80 | > 80
13 | CCOC(=O)OC1=C(c2c(C)cc(C)cc2Cl)C(=O)N(OC2CCCO2)C12CCN(OC)CC2 (centres unmarked) [P1.107] | – | > 80 | > 80 | > 80 | > 80 | > 80 | > 80 | – | – | ≥ 80 | –
14 | CCOC(=O)OC1=C(c2c(C)cc(C)cc2C)C(=O)N(OCC2CCCO2)C12CCN(OC)CC2 (centres unmarked) [P1.24] | – | > 80 | > 80 | > 80 | > 80 | > 80 | > 80 | > 80 | – | ≥ 80 | –
15 | CON1CCC2(CC1)C(O)=C(c1c(C)cc(C)cc1C)C(=O)N2OC1CCOCC1 [P2.21] | – | > 80 | > 80 | > 80 | > 80 | > 80 | > 80 | > 80 | – | ≥ 80 | –
16 | CON1CCC2(CC1)C(O)=C(c1c(C)cc(C)cc1Br)C(=O)N2OC [P2.56] | – | > 80 | > 80 | > 80 | > 80 | > 80 | – | > 80 | – | – | > 80
17 | CON1CCC2(CC1)C(O)=C(c1c(C)cc(Br)cc1C)C(=O)N2OC1CCCO1 (centres unmarked) [P2.62] | > 80 | > 80 | – | – | – | – | – | – | – | ≥ 80 | –
18 | CCOC(=O)OC1=C(c2c(C)cc(C)cc2C)C(=O)N(OC2CCC2)C12CCN(OC)CC2 [P1.45] | – | > 80 | > 80 | – | > 80 | – | > 80 | > 80 | – | ≥ 80 | > 80
19 | CON1CCC2(CC1)C(O)=C(c1c(C)cc(C)cc1C)C(=O)N2OCC1CCOC1 (centres unmarked) [P2.67] | > 80 | > 80 | > 80 | – | – | – | – | > 80 | – | ≥ 80 | –
20 | CCOC(=O)OC1=C(c2c(C)cc(C)cc2C)C(=O)N(OC(C)C)C12CCN(OC)CC2 [P1.14] | – | > 80 | – | – | > 80 | – | – | – | – | ≥ 80 | > 80
21 | CCOC(=O)OC1=C(c2cc(C)ccc2C)C(=O)N(O)C12CCN(OC)CC2 [P1.12] | > 80 | > 80 | > 80 | – | – | – | > 80 | – | – | – | –
22 | CCOCON1C(=O)C(c2ccc(C)cc2C)=C(OC(=O)OCC)C12CCN(OC)CC2 [P1.49] | > 80 | > 80 | > 80 | – | > 80 | > 80 | > 80 | > 80 | – | – | –
23 | COCCON1C(=O)C(c2c(C)cccc2C)=C(O)C12CCN(OC)CC2 [P2.77] | > 80 | > 80 | > 80 | – | – | – | – | – | – | ≥ 80 | –
24 | COCON1C(=O)C(c2c(C)ccc(C)c2C)=C(O)C12CCN(OC)CC2 [P2.54] | – | > 80 | > 80 | > 80 | > 80 | > 80 | – | – | – | ≥ 80 | > 80
25 | CCOC(=O)OC1=C(c2ccc(C)cc2C)C(=O)N(OC2CCCO2)C12CCN(OC)CC2 (centres unmarked) [P1.47] | > 80 | > 80 | > 80 | – | – | – | – | > 80 | – | – | –
26 | CCOC(=O)OC1=C(c2c(C)cc(C)cc2C)C(=O)N(OCC2CC2)C12CCN(OC)CC2 [P1.18] | – | > 80 | > 80 | – | > 80 | > 80 | > 80 | > 80 | > 80 | ≥ 80 | > 80
27 | CON1CCC2(CC1)C(O)=C(c1c(C)cc(C)cc1C)C(=O)N2OCC1CCOCC1 [P2.84] | > 80 | > 80 | > 80 | – | – | – | – | – | – | – | –
28 | CON1CCC2(CC1)C(O)=C(c1c(C)cc(C)cc1C)C(=O)N2OC1CCC1 [P2.30] | – | > 80 | > 80 | – | > 80 | > 80 | – | > 80 | – | ≥ 80 | > 80
